{"source": "patent US20230330133A1", "about": "“METHODS FOR THE TREATMENT OF CHOLESTEROL CRYSTAL EMBOLIZATION WITH CYCLODEXTRINS” (Beren Therapeutics P.B.C., priority 2020, published 2023)", "key": {"[1]": {"conditions": "human subject, single-ascending i.v. doses 500-1,000 mg/kg every 4 weeks; after treatment vs pre-dose; FIG. 1A", "procedure": "A human subject was treated with 2-hydroxypropyl-beta-cyclodextrin with single-ascending doses administered intravenously every 4 weeks according to Table 1 below. […] For each dose, whole blood was collected pre-dose, post-dose (line flush), 1 hour post-dose, and 24 hours post-dose. Plasma was separated from the whole blood and subjected to a cholesterol crystal dissolution capacity (CCDC) assay using techniques similar to those described in the literature. The CCDC assay measures the ability of a sample to dissolve cholesterol crystals."}, "[2]": {"conditions": "human subject, i.v. 500-1,000 mg/kg every 4 weeks, FIGS. 2A-2C", "procedure": "(§1) A human subject was treated with 2-hydroxypropyl-beta-cyclodextrin with single-ascending doses administered intravenously every 4 weeks according to Table 1 below.\nIn this Example, a human subject was treated with 2-hydroxypropyl-beta-cyclodextrin according to Example 1, and plasma levels of 24S-hydroxycholesterol and 27-hydroxycholesterol were measured. […] 27-hydroxycholesterol is an endogenous LXR ligand leading to a downstream anti-inflammatory gene signature which may, in some embodiments, address the detrimental inflammatory response via NLRP3 inflammasome effects of cholesterol crystal embolization. The elevated 27-hydroxycholesterol is also a cellular marker of macrophage activation and increased activity for cholesterol crystal phagocytosis and clearance."}, "ABCG1": {"tested_on": "ABCG1", "conditions": "peripheral blood, human subject, i.v. 500-1,000 mg/kg every 4 weeks; FIGS. 3A-3D", "procedure": "as §1\n(§2) In this Example, a human subject was treated with 2-hydroxypropyl-beta-cyclodextrin according to Example 1, and mRNA levels of the LXR transcription factor-regulated genes, ABCA1 and ABCG1, were measured. […] ABCA1 and ABCG1 are important cholesterol transporters and are responsible for cholesterol efflux from cells, loading of HDL particles for reverse cholesterol transport (RCT), and excretion via the hepatic pathway, to potentially reduce the cholesterol and cholesterol crystal emboli released into the vasculature and stabilize ruptured atherosclerotic plaque."}, "ABCA1": {"tested_on": "ABCA1", "conditions": "peripheral blood, human subject, i.v. 500-1,000 mg/kg every 4 weeks; FIGS. 3A-3D", "procedure": "as §1, §2"}, "[3]": {"conditions": "pre-dose human plasma incubated ex vivo with the substance; FIG. 1B", "procedure": "For each dose, whole blood was collected pre-dose, post-dose (line flush), 1 hour post-dose, and 24 hours post-dose. Plasma was separated from the whole blood and subjected to a cholesterol crystal dissolution capacity (CCDC) assay using techniques similar to those described in the literature. The CCDC assay measures the ability of a sample to dissolve cholesterol crystals.\nBlood plasma pre-dose was also incubated ex vivo with 2-hydroxypropyl-beta-cyclodextrin and the ability of the plasma to dissolve cholesterol crystals was measured."}}, "data": [{"substance": "2-hydroxypropyl-beta-cyclodextrin", "values": [{"measurement": "capability of blood plasma to dissolve cholesterol crystals (CCDC)", "setting": "[1]", "result": "increased capability of blood plasma to dissolve cholesterol crystals"}, {"measurement": "plasma levels of 24S-hydroxycholesterol", "setting": "[2]", "result": "increased"}, {"measurement": "plasma levels of 27-hydroxycholesterol", "setting": "[2]", "result": "increased"}, {"measurement": "total cholesterol levels", "setting": "[2]; plasma", "result": "remained stable"}, {"measurement": "mRNA levels of ABCG1", "setting": "ABCG1", "result": "increased"}, {"measurement": "mRNA levels of ABCA1", "setting": "ABCA1", "result": "increased"}, {"measurement": "capacity of plasma to dissolve cholesterol crystals (CCDC)", "setting": "[3]", "result": "increased capacity to dissolve cholesterol crystals"}]}]}
